Key:
MRP1 = MRP1 (Homo sapiens, UniProt P33527); conditions: cited from earlier work
chicken embryos = experiment: Embryo toxicity testing in chicken embryos; assay type: in vivo; conditions: 100 μM in ethanol and PBS, after 72 hours
Experimental: FIG. 11: 6-PN and 8-PN reduce proliferation and invasion of BLM and LOXIMVI melanoma cells in human epidermal skin reconstructs and induce little embryo toxicity. (A) BLM melanoma cells and keratinocytes were seeded on top of a collagen matrix populated by fibroblasts. After 16 days a keratinizing stratified epithelium with a rudimentary corium is formed. […] (B) Similar results were obtained for LOXIMVI melanoma cells under the same treatment conditions. Only nests of dead, MIB1 negative LOXIMVI cells were detected after treatment with the PNs. (C) Chicken embryos stage 13HH (corresponding to 6 human gestational weeks) were exposed to DMSO as control, 100 μM 6-PN or 100 μM 8-PN to determine LD50 values. Survival rates after 24 hours, 48 hours, and 72 hours are depicted in a Kaplan-Meier plot.
Fertilized eggs of leghorn chickens (Gallus gallus domesticus) were incubated at 38° C. in a temperature-controlled, humidified brooder. […]
Due to the detected cytotoxic effects on cancer cells and of melanocytes in vitro, the determination of in vivo embryotoxicity was of great interest. To this end, 2-day chicken embryos were treated for 24, 48 and 72 hours with 100 μM 6-PN or 100 μM 8-PN to monitor survival as readout for lethal embryotoxicity (FIG. 11C). […]

[1] = tested on: LC3 in SK-MEL-28 melanoma cells; experiment: Western blot LC3 (autophagy), SK-MEL-28; assay type: cell-based, human; conditions: SK-MEL-28, 100 μM, after 12-24 hours
Experimental: (A) Cell cycle FACS analyses of PI stained BLM and SK-MEL-28 melanoma cells. 100 μM of 8-PN-induced a G2 arrest in both cells. (B) FACS analyses of BLM and SK-MEL-28 melanoma cells treated with 100 μM 6-PN or 8-PN and stained for annexin V/PI; staurosporin was used as control for apoptosis induction and DMSO as vehicle control. […] (C) BLM and SK-MEL-28 melanoma cells were treated with 100 μM of PNs; TSA, SAHA and EMSO were used as controls.
The following antibodies were used: Anti-Vinculin and Anti-Actin (1:5000, Sigma-Aldrich), Anti-Acetyl-Histon H3 (1:5000, Millipore, Billerica, USA), Anti-Caspase-3 (1:1000), Anti-AKT, Anti-pAKT, Anti-ERK, Anti-pERK, […], Anti-p70S6 Kinase, and Anti-pS6 protein (1:1000), all from Cell Signaling, Frankfurt, Germany), Anti-LC3 (1:5000, Sigma-Aldrich).
Since it has been speculated that the formation of intracytoplasmic vacuoles in pancreatic or breast cancer cells by 6-PN and 8-PN observed in pervious studies might represent an induction of autophagy, this issue was further investigated on a molecular level. BLM and SK-MEL-28 melanoma cells were treated with 100 μM of 6-PN, 8-PN, SAHA or TSA (and with DMSO as control), and the treated cells were lysed for protein extraction after 1 hour, 2 hours, 4 hours, 12 hours and 24 hours. […]

[2] = tested on: estrogen receptors of the rat uterus; conditions: cited from earlier work

Chain of MRP1 (P33527 whole entry): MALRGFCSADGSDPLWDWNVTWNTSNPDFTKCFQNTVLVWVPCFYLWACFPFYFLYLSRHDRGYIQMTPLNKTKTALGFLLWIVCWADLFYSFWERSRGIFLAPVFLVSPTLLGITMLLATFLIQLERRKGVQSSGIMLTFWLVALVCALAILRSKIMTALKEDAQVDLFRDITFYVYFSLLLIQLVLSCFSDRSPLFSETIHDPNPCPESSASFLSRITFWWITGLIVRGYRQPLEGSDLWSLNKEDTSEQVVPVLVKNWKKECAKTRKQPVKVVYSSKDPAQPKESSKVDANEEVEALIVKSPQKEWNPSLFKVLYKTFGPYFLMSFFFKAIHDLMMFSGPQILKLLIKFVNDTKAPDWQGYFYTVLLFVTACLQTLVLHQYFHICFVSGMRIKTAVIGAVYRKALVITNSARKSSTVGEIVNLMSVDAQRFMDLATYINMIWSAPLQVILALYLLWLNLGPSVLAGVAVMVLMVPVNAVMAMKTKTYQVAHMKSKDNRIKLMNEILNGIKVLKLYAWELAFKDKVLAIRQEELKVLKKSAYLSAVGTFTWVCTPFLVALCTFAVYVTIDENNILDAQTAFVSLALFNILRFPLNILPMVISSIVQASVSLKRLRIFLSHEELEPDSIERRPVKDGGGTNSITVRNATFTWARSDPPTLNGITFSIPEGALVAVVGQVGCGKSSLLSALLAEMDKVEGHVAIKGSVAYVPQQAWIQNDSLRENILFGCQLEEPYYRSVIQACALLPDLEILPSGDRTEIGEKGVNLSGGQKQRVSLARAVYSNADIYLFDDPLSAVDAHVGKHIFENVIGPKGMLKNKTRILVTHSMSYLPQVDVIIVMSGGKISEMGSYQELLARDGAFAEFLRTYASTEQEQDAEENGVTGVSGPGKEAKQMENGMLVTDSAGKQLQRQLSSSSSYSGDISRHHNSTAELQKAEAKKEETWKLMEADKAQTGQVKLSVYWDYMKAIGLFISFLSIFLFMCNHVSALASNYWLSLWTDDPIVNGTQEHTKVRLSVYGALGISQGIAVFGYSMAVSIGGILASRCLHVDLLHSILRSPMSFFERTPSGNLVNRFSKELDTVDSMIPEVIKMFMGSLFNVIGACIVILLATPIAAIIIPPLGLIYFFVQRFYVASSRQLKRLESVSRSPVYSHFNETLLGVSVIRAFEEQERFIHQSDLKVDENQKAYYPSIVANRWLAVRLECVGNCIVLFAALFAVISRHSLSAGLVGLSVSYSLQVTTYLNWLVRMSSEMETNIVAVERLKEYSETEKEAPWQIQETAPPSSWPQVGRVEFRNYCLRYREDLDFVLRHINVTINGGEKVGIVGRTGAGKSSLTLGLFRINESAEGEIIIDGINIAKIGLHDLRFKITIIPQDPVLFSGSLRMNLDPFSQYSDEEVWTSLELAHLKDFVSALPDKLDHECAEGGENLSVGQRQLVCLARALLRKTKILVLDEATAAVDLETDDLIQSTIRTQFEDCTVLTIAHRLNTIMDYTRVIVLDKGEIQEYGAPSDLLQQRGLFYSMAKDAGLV

CC(C)=CCc1c(O)cc(O)c2c1OC(c1ccc(O)cc1)CC2=O (stereo not shown) [8-PN, 5,7-Dihydroxy-2-(4-hydroxy-phenyl)-8-(3-methyl-but-2-enyl)-chroman-4-one]
inhibition of MRP1 (MRP1): inhibition | embryos survived (chicken embryos): 8/10 | shift from LC3-I to LC3-II (autophagy) [1]: clearly induced the shift | binding affinity for estrogen receptors [2]: strong binding affinity
